Laboratory results published in the supplement of paper PMC10307832.

Experiments:
Assay in all cases: relative viability (nuclei count vs DMSO), 5 days (fraction); higher = more cells survive
[1] = compound: O=c1[nH]cc(F)c(=O)[nH]1 [5-Fluorouracil] + CC(=O)c1c(C)c2cnc(Nc3ccc(N4CCNCC4)cn3)nc2n(C2CCCC2)c1=O [Palbociclib] (partner 0.5 µM)
How it was run: (§1)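 Cells from lung cancer lines were seeded into 1536-well plates and, one day later, dosed by pin tool. Treatments were either a single drug or a fixed dose of an anchor drug with five library-drug doses (not always all listed) in √10 steps. After 5 days, nuclei were stained in a one-step fixation (final 0.05% Triton X-100, 1% formaldehyde, 1 ug/ml Hoechst) and counted on 4× images, and relative viability is the treated-to-vehicle nuclei ratio, as the median of duplicate plates.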

Sulindac + Olaparib = compound: CC1=C(CC(=O)O)c2cc(F)ccc2/C1=C\c1ccc([S+](C)[O-])cc1 [Sulindac] + O=C(c1cc(Cc2n[nH]c(=O)c3ccccc23)ccc1F)N1CCN(C(=O)C2CC2)CC1 [Olaparib] (partner 8 µM)
How it was run: as §1

Sulindac + OSI-027 = compound: CC1=C(CC(=O)O)c2cc(F)ccc2/C1=C\c1ccc([S+](C)[O-])cc1 [Sulindac] + COc1cccc2cc(-c3nc([C@H]4CC[C@H](C(=O)O)CC4)n4ncnc(N)c34)[nH]c12 [OSI-027] (partner 0.5 µM)
How it was run: as §1

Sulindac + Tozasertib = compound: CC1=C(CC(=O)O)c2cc(F)ccc2/C1=C\c1ccc([S+](C)[O-])cc1 [Sulindac] + Cc1cc(Nc2cc(N3CCN(C)CC3)nc(Sc3ccc(NC(=O)C4CC4)cc3)n2)n[nH]1 [Tozasertib] (partner 0.1 µM)
How it was run: as §1

UMC-11 showed a relative viability ([1]; first compound 0.02 µM) of 0.344, a relative viability ([1]; first compound 0.2 µM) of 0.364 and a relative viability ([1]; first compound 0.6325 µM) of 0.309. It also gave a relative viability (Sulindac + Olaparib; first compound 0.08 µM) of 0.463, a relative viability (Sulindac + Olaparib; first compound 0.253 µM) of 0.342 and a relative viability (Sulindac + Olaparib; first compound 0.8 µM) of 0.42. The relative viability (Sulindac + Olaparib; first compound 2.53 µM) was 0.339, the relative viability (Sulindac + Olaparib; first compound 8 µM) was 0.332 and the relative viability (Sulindac + OSI-027; first compound 0.08 µM) was 0.624. It also gave a relative viability (Sulindac + OSI-027; first compound 0.253 µM) of 0.502, a relative viability (Sulindac + OSI-027; first compound 0.8 µM) of 0.371 and a relative viability (Sulindac + OSI-027; first compound 2.53 µM) of 0.543. For the same cell line, the relative viability (Sulindac + OSI-027; first compound 8 µM) was 0.487, the relative viability (Sulindac + Tozasertib; first compound 0.08 µM) was 0.204 and the relative viability (Sulindac + Tozasertib; first compound 0.253 µM) was 0.192. It also gave a relative viability (Sulindac + Tozasertib; first compound 0.8 µM) of 0.228, a relative viability (Sulindac + Tozasertib; first compound 2.53 µM) of 0.2 and a relative viability (Sulindac + Tozasertib; first compound 8 µM) of 0.204.
